{
  "source": "patent US20230111558A1",
  "about": "“Composition for Preventing and Treating Heart Dysfunction and its Application Thereof” (21ST CENTURY HERBS & HEALTH, priority 2021, published 2023)",
  "type_in_all_cases": "in vivo",
  "key": {"SOD": {"system": "SOD", "assay": "Superoxide dismutase (SOD) in ISO-induced zebrafish", "conditions": "ISO=0.02 mg/L, CoQ10=4.0 mg/L, 24 hours; vs ISO group", "description": "(§1) Three-day post fertilization wild-type zebrafish with normal development are used for the experiment and divided them into 4 groups, namely the control group, the ISO group (ISO=0.02 mg/L), the TC group (CoQ10=4.0 mg/L), and the CoQ10 group (CoQ10=4.0 mg/L), 30 in each group; The zebrafish in the ISO group are immersed in the ISO solution prepared with embryo culture water for 24 hours, then taken out and recorded their heart rate under a microscope. The signs of successful ISO-induced myocardial injury in zebrafish are a significant decrease in heart rate and the formation of pericardial edema. The zebrafish in the TC and CoQ10 groups are respectively immersed in embryo breeding water containing ISO and TC or CoQ10, incubated for 24 hours and then taken out for photography under a microscope.\n(§2) The detection of SOD and LDH are carried out according to the instructions of the kits, which are purchased from NanJing JianCheng Bioengineering Institute with the article numbers of A001-3, A020-2 and A019-2-1, respectively."}, "ISO-induced zebrafish [1]": {"system": "ISO-induced zebrafish", "assay": "Cardiac function of ISO-induced zebrafish myocardial injury model", "conditions": "ISO=0.02 mg/L, CoQ10=4.0 mg/L, 24 hours; vs ISO group", "description": "(§3) The zebrafish experiments are conducted in accordance to the internationally accepted standards. The wild type zebrafish strain AB is provided by the Developmental Biology Platform of Chongqing Medical University. Using the Shanghai Haisheng zebrafish aquatic ecosystem, the temperature in the fish tank is 28.5° C., the water temperature is 28-30° C., the salinity is 0.03%-0.04%, the pH is 7.2-7.6, and the photoperiod is 14 h light-10 h dark.\nas §1\n(§4) First, the zebrafish are placed at room temperature and counted the number of heart beats within 15 seconds under a microscope. Then, the heart rate is obtained by multiplying it by 4. Then the zebrafish are placed in a petri dish, fixed with 1% low-melting agar, and held in a lateral position (with the eyes on top of the segments and the tail at the same level as the body). Fifty-eight images are generated by using an inverted fluorescence microscope for five consecutive shots. The diastolic and systolic images are selected, and the length (a) and width (b) of the ventricles are measured. The volume (V) of the ventricles is calculated with the ellipsoidal volume formula, and the surface area (S) of the ventricles is calculated with the elliptical area formula. The stroke-volume (SV), ejection fraction (EF), and fractional area change (FAC), cardiac output (CO) of zebrafish are calculated. Ventricular volume (V)=4/3π(a/2) (b/2)^2; Stroke-volume (SV)=Vdiastolic−Vsystolic; Ejection Fraction (EF)=(Vdiastole−Vsystole)/Vdiastole; Ventricular surface area (S)=(a/2) (b/2)π; Fractional Area Change (FAC)=(Sdiastolic−Ssystolic)/Sdiastolic; Cardiac Output (CO)=Cardiac volume*heart rate."}, "H/R zebrafish": {"system": "H/R zebrafish", "assay": "Cardiac function of hypoxia-reoxygenation (H/R) zebrafish", "conditions": "CoQ10=4.0 mg/L, reoxygenation 24 hours, vs H/R group", "description": "as §3\nThree-day post fertilization wild-type of zebrafish with normal development are used for the experiment. The zebrafish are divided into 4 groups, namely the control group, the H/R (Hypoxia-reoxygenation) group, the TC group (CoQ10=4.0 mg/L), and the CoQ10 group (CoQ10=4.0 mg/L), n=30. Fill the beaker with circulating water for fish breeding, and then fill the water with high purity nitrogen. At the same time, use dissolved oxygen meter to detect the oxygen concentration in the water. Stop filling nitrogen until the oxygen concentration is stable at 0.00 mg/L. The air in the bevel glass bottle is discharged with nitrogen, and the prepared hypoxic water is put into the bevel glass bottle. The juvenile zebrafish of 3 days are put into the bottle, the cap is tightened, the glass bottle is placed into a plastic sealed bag, and then the sealed bag is vacuumed to ensure that no air enters. The end point of hypoxia is that the young fish sank to the bottom and remained motionless for 1 minute. At the same time, the zebrafish bent its body, turned the glass bottle upside down and then put it flat. The zebrafish sank head down and vertically. Then, the zebrafish are taken out and put into aquaculture water or medicine solution prepared with aquaculture water. After reoxygenation for 24 hours, the heart function indexes of zebrafish are examined.\nas §4"}, "LDH": {"system": "LDH", "assay": "Lactate dehydrogenase (LDH) in ISO-induced zebrafish", "conditions": "ISO=0.02 mg/L, CoQ10=4.0 mg/L, 24 hours; vs ISO group", "description": "as §1, §2"}, "[2]": {"system": "atrial natriuretic peptide (ANP)", "assay": "ANP gene expression by RT-PCR in ISO-induced zebrafish", "conditions": "ISO=0.02 mg/L, CoQ10=4.0 mg/L, 24 hours; vs ISO group", "description": "as §1\n(§5) Zebrafish RNA extraction, reverse transcription and quantitative amplification are performed in accordance with the instructions of the kit obtained from Nanjing Vazyme Biotech Co., Ltd, the article numbers are RC101, R223-01 and Q711-02.\n(§6) ANP refers to atrial natriuretic peptide, BNP refers to brain natriuretic peptide, GAPDH refers to glyceraldehyde 3-phosphate dehydrogenase."}, "[3]": {"system": "brain natriuretic peptide (BNP)", "assay": "BNP gene expression by RT-PCR in ISO-induced zebrafish", "conditions": "ISO=0.02 mg/L, CoQ10=4.0 mg/L, 24 hours; vs ISO group", "description": "as §1, §5, §6"}, "ISO-induced zebrafish [4]": {"system": "ISO-induced zebrafish", "assay": "ISO-induced zebrafish pericardial edema (pericardial height)", "conditions": "ISO=0.02 mg/L, CoQ10=4.0 mg/L, 24 hours; vs ISO group", "description": "as §1\nImages are used to measure the height of the pericardium, the distance between the front of the yolk sac and the top of the pericardium, as shown by the arrow in FIG. 3(A)."}},
  "data": [
    {"smiles": "COC1=C(OC)C(=O)C(C/C=C(\\C)CC/C=C(\\C)CC/C=C(\\C)CC/C=C(\\C)CC/C=C(\\C)CC/C=C(\\C)CC/C=C(\\C)CC/C=C(\\C)CC/C=C(\\C)CCC=C(C)C)=C(C)C1=O", "note": "[CoQ10, Coenzyme Q10]", "values": [
      {"measurement": "activity of SOD", "setting": "SOD", "result": "no significantly effect"},
      {"measurement": "cardiac output (CO)", "setting": "ISO-induced zebrafish [1]", "result": "significantly increase"},
      {"measurement": "ejection fraction (EF)", "setting": "ISO-induced zebrafish [1]", "result": "significantly increase"},
      {"measurement": "fractional area change (FAC)", "setting": "ISO-induced zebrafish [1]", "result": "significantly increase"},
      {"measurement": "heart rate", "setting": "ISO-induced zebrafish [1]", "result": "no significant effect"},
      {"measurement": "stroke volume (SV)", "setting": "ISO-induced zebrafish [1]", "result": "significantly increase"},
      {"measurement": "cardiac output (CO)", "setting": "H/R zebrafish", "result": "significantly increase"},
      {"measurement": "ejection fraction (EF)", "setting": "H/R zebrafish", "result": "significantly increase"},
      {"measurement": "fractional area change (FAC)", "setting": "H/R zebrafish", "result": "significantly increase"},
      {"measurement": "heart rate", "setting": "H/R zebrafish", "result": "no significant effect"},
      {"measurement": "stroke volume (SV)", "setting": "H/R zebrafish", "result": "significantly increase"},
      {"measurement": "activity of LDH", "setting": "LDH", "result": "reduced the activity of LDH, the result is insignificant"},
      {"measurement": "excessive expression of ANP", "setting": "[2]", "result": "significantly reduce"},
      {"measurement": "excessive expression of BNP", "setting": "[3]", "result": "significantly reduce"},
      {"measurement": "pericardial edema (pericardial height)", "setting": "ISO-induced zebrafish [4]", "result": "no effect"}
    ]}
  ]
}
